Measurements reported in patent US7157408B2, “Quinoline fungicides” (Valent BioSciences Corporation, priority 2004, dated 2007).

Tests used:
Pythium aphanidermatum = experiment: Contact evaluation (microtiter plate); format: cell-based
Experimental: (§1) Compound solution: Contact evaluations were conducted to determine the anti-fungal activity of each compound against Botrytis cinerea, Sclerotinia sclerotiorum, Pythium aphanidermatum, Rhizoctonia solani, Cercospora arachidicola, Mycosphaerella fjiensis, and Monilinia laxa. Five milligrams of each compound were dissolved in 0.5 milliliter of DMSO for a compound stock solution of 1.0% w/v. Compound stock solutions were serial diluted with DMSO to 20, 10, and 2 ppm final well concentration. Fungi preparation: Botrytis cinerea spores were taken from 6-week-old cultures grown at 22C on full strength potato dextrous agar (PDA) plates. Sclerotinia sclerotiorum, Pythium aphanidermatum, Rhizoctonia solani, and Monilinia laxa mycelia were taken from 4- to 10-day-old shake flask cultures grown at room temperature on full strength potato dextrous broth (PDB). Cercospora arachidicola mycelia were taken from 10- to 14-day-old shake flask cultures grown at room temperature on a full strength PDB amended with peanut oil. Mycosphaerella fijiensis mycelia were taken from 10- to 14-day-old shake flask cultures grown at room temperature on V8 juice broth. Sclerotinia sclerotiorum, Pythium aphanidermatum, Rhizoctonia solani, Cercospora arachidicola, and Mycosphaerella fijiensis mycelia (0.4 g mycelia) were blended for 45 seconds in 20 mL sterile de-ionized water. Monilinia laxa mycelia (1 g mycelia) was blended for 45 seconds in 30 mL of sterile de-ionized water. Botrytis cinerea spores were diluted with quarter strength PDB to 1×10^5 spores/mL final well concentration. All mycelia were diluted in water (1:5 mycelia:water) before distributing into the wells. Microtiter plate preparation: Compound solution (10 :L), quarter strength PDB (900 :L) and fungi preparation (100 :L) were sequentially distributed into 48-well microtiter plates (n=3 replications/compound/rate). A blank consisted of quarter strength PDB and fungi preparation. Commercial fungicide controls (100 ppm diluted with water) consisted of Scala for Botrytis cinerea, Dithane F-45 for Mycosphaerella fijiensis, and Benlate for Sclerotinia sclerotiorum, Pythium aphanidermatum, Rhizoctonia solani, Cercospora arachidicola, and Monilinia laxa. Plates were shaken in a circular rotator at room temperature for 20 minutes, then incubated at 25C for 24 to 72 hours, depending on the pathogen. Fungal control ratings: Fungal growth in wells containing the compounds were compared to the positive control and fungal inhibition was rated as full, partial, or none. Final readings were the average of the three wells (Table 1).

Mycosphaerella fijiensis = experiment: Contact evaluation (microtiter plate); format: cell-based
Experimental: as §1

Cercospora arachidicola = experiment: Contact evaluation (microtiter plate); format: cell-based
Experimental: as §1

Monilinia laxa = experiment: Contact evaluation (microtiter plate); format: cell-based
Experimental: as §1

Botrytis cinerea [1] = experiment: Contact evaluation (microtiter plate); format: cell-based
Experimental: as §1

Sclerotinia sclerotiorum = experiment: Contact evaluation (microtiter plate); format: cell-based; conditions: Sclerotinia sclerotionum
Experimental: as §1

Rhizoctonia solani = experiment: Contact evaluation (microtiter plate); format: cell-based; conditions: Rhizoctinia solani
Experimental: as §1

[2] = test system: Phaseolus vulgaris (Bush bean cv. Blue Lake 274) leaves; experiment: Detached bean leaf bioassay, phytotoxicity rating; format: in vivo; conditions: 200 ppm, scale 0=no, 1=slight, 2=moderate, 3=excessive phytotoxicity
Experimental: Compound solution: Compound solutions were prepared by diluting compound stock solutions (1.0% w/v compound in DMSO) to 200 ppm with 0.01% w/v Triton X-100. Plant material: Middle trifoliate leaves of greenhouse grown Phaseolus vulgaris (Bush bean cv. Blue Lake 274) were excised and placed on a plastic grid above a tray containing moist towels. Treatment method: One half of the adaxial surface of the leaf was treated with the compound solution (100 :L) using a 3 cm Bacti Cell Spreader. A blank consisted of 0.01% w/v Triton X-100. A commercial fungicide control (200 ppm diluted with water) consisted of Scala. After the solutions dried, the trays containing the leaves were covered and held one day in a growth chamber (22C). The adaxial surfaces of the leaves were then inoculated with 5–60 :L droplets of Botrytis cinerea spore solution. Phytotoxicity ratings: Phytotoxicity was rated as 0=no phytotoxicity, 1=slight phytotoxicity, 2=moderate phytotoxicity, or 3=excessive phytotoxicity (Table 2).

Botrytis cinerea [3] = experiment: Detached bean leaf bioassay, fungal control; format: in vivo; conditions: 200 ppm, three days after inoculation, 100 minus percent necrotic area
Experimental: Compound solution: Compound solutions were prepared by diluting compound stock solutions (1.0% w/v compound in DMSO) to 200 ppm with 0.01% w/v Triton X-100. Spore solution preparation: Botrytis cinerea spores were taken from 6-week-old cultures grown at 22C on full strength potato dextrous agar (PDA) plates and harvested in 1:16 frozen orange juice concentrate:water. Botrytis cinerea spore solutions were prepared by diluting spore cultures to 5×10^4 spores/mL with 1:16 frozen orange juice concentrate:water. Plant material: Middle trifoliate leaves of greenhouse grown Phaseolus vulgaris (Bush bean cv. Blue Lake 274) were excised and placed on a plastic grid above a tray containing moist towels. Treatment method: One half of the adaxial surface of the leaf was treated with the compound solution (100 :L) using a 3 cm Bacti Cell Spreader. A blank consisted of 0.01% w/v Triton X-100. A commercial fungicide control (200 ppm diluted with water) consisted of Scala. […] Fungal control rating: Three days after inoculation with Botrytis, the percent necrotic area under the inoculation droplet was determined. Since the areas under the blank (0.01% w/v Triton X-100) were 100% infected, fungal control was expressed as 100 minus the percent necrotic area, and thus 0% infected is 100% fungal control (n=3 leaves/compound, 5 inoculation droplets/leaf, Table 2).

OCCc1c(Br)cc(Br)c2cccnc12 [Example 1, 5,7-dibromo-8-(2-hydroxyethyl)quinoline]
Control of fungi (full, partial, none) (Pythium aphanidermatum; fungicide rate 2 ppm): Full | Control of fungi (full, partial, none) (Pythium aphanidermatum; fungicide rate 10 ppm): Full | Control of fungi (full, partial, none) (Pythium aphanidermatum; fungicide rate 20 ppm): Full | Control of fungi (full, partial, none) (Mycosphaerella fijiensis; fungicide rate 2 ppm): Full | Control of fungi (full, partial, none) (Mycosphaerella fijiensis; fungicide rate 10 ppm): Full | Control of fungi (full, partial, none) (Mycosphaerella fijiensis; fungicide rate 20 ppm): Full | Control of fungi (full, partial, none) (Cercospora arachidicola; fungicide rate 2 ppm): None | Control of fungi (full, partial, none) (Cercospora arachidicola; fungicide rate 10 ppm): Full | Control of fungi (full, partial, none) (Cercospora arachidicola; fungicide rate 20 ppm): Full | Control of fungi (full, partial, none) (Monilinia laxa; fungicide rate 2 ppm): Full | Control of fungi (full, partial, none) (Monilinia laxa; fungicide rate 10 ppm): Full | Control of fungi (full, partial, none) (Monilinia laxa; fungicide rate 20 ppm): Full | Control of fungi (full, partial, none) (Botrytis cinerea [1]; fungicide rate 2 ppm): Partial | Control of fungi (full, partial, none) (Botrytis cinerea [1]; fungicide rate 10 ppm): Full | Control of fungi (full, partial, none) (Botrytis cinerea [1]; fungicide rate 20 ppm): Full | Control of fungi (full, partial, none) (Sclerotinia sclerotiorum; fungicide rate 2 ppm): Full | Control of fungi (full, partial, none) (Sclerotinia sclerotiorum; fungicide rate 10 ppm): Full | Control of fungi (full, partial, none) (Sclerotinia sclerotiorum; fungicide rate 20 ppm): Full | Control of fungi (full, partial, none) (Rhizoctonia solani; fungicide rate 2 ppm): Full | Control of fungi (full, partial, none) (Rhizoctonia solani; fungicide rate 10 ppm): Full | Control of fungi (full, partial, none) (Rhizoctonia solani; fungicide rate 20 ppm): Full | melting point: 128 to 131 °C | Phytotoxity [2]: Slight | Botrytis cinerea control (Botrytis cinerea [3]): 100%
